What is called IC50 is the point on the concentration scale where inhibition reaches its midpoint. Read a low IC50 as greater potency.

SMILES strings stand for the structures. Bounds are passed on as bounds.

The target of the first assay is T1, Kv1.3 channels (Mus musculus, UniProt P16390).
T1 construct: expressed in transfected cells; host or cells: L929 cells, stably transfected
T1 sequence (P16390 whole entry): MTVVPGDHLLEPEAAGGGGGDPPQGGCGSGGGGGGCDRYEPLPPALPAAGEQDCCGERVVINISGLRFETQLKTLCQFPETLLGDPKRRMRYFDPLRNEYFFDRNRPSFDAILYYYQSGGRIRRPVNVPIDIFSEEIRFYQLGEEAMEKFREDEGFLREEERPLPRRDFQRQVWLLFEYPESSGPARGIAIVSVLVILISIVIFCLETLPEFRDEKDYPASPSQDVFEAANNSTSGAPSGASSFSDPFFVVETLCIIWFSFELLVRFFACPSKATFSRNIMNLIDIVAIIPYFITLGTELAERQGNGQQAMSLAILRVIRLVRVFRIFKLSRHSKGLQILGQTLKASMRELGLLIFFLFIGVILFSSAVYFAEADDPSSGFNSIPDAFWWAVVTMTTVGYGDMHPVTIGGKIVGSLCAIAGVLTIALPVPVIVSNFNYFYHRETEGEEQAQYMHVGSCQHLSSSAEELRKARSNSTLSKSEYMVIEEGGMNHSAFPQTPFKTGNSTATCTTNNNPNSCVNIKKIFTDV
The assay is described as follows: Kv1.3 assay, whole-cell patch-clamp in stably transfected L929 cells. Type of assay: cell-based. As to conditions: c=20 μM, two cells per compound. As for the experimental part:
The inhibition of Kv1.3 was measured in stable transfected cell lines expressing mouse Kv1.3 using the patch-clamp technique (Rauer H et al. J Biol Chem Vol. 275, No. 2, 1201-1208, 2000), Rauer H Mol Pharmacol, 50, 1625-1634, 1996, Rauer H et al. J Pharmacol, 127, 1065-1074, 1999).
Stable transfected L929 cells with Kv1.3 channels were grown in DMEM (Glutamax-I) media with 10% FCS, geneticin 330 μg/ml under 10% CO2 atmosphere.
Whole-cell patch-clamp configuration, with an external bath solution of 160 mM NaCl, 4, 5 mM KCl, 1 mM MgCl, 2 mM CaCl2, 5 mM HEPES, 10 mM EGTA and NaOH adjusted to pH 7.4. Internal pipette solution for recording was 155 mM KF, 2 mM MgCl2, 10 mM HEPES, 10 mM EGTA with KOH adjusted to pH 7.2. Currents were activated by a 200-ms voltage step from a holding potential of −80 to 40 mV every 30 s. Holding potential −80 mV.
Each compound was tested on two different cells. The cell was perfused with external bath solution (black line), then the compound was applied (c=20 μM). The resulting stedy-state current traces are shown as red lines. Example 3, 5, 6, 7, 8 are blockers.
Background: The patch-clamp technique gives a direct electrical read-out from membranes.
Consider `O=C(Nc1cccc(C2=N[C@@H](Cc3ccccc3)CO2)c1)Nc1cccc(C(F)(F)F)c1` [Example 8, 1-[3-(4-(S)-Benzyl-4,5-dihydro-oxazol-2-yl)-phenyl]-3-(3-trifluoromethyl-phenyl)-urea], for which the Kv1.3 channel block entry is reported as “blockers”.

`O=C(Nc1cccc(C2=N[C@H](c3ccccc3)CO2)c1)Nc1cccc(C(F)(F)F)c1` [Example 5, 1-[3-(4-(R)-Phenyl-4,5-dihydro-oxazol-2-yl)-phenyl]-3-(3-trifluoromethyl-phenyl)-urea]: the Kv1.3 channel block result is “blockers”.

Take `O=C(Nc1cccc(C2=N[C@@H](c3ccccc3)CO2)c1)Nc1cccc(C(F)(F)F)c1` [Example 6, 1-[3-(4-(S)-Phenyl-4,5-dihydro-oxazol-2-yl)-phenyl]-3-(3-trifluoromethyl-phenyl)-urea]: the Kv1.3 channel block entry is “blockers”. On the same count and under the same terms, with `O=C(Nc1ccc(C2=N[C@H](Cc3ccccc3)CO2)cc1)Nc1ccc(S(=O)(=O)NCc2cc(F)c(F)c(F)c2)cc1` [Example 3, 4-{3-[4-(4-(R)-Benzyl-4,5-dihydro-oxazol-2-yl)-phenyl]-ureido}-N-(3,4,5-trifluoro-benzyl)-benzenesulfonamide] the entry was “blockers”; with `O=C(Nc1cccc(C2=N[C@H](Cc3ccccc3)CO2)c1)Nc1cccc(C(F)(F)F)c1` [Example 7, 1-[3-(4-(R)-Benzyl-4,5-dihydro-oxazol-2-yl)-phenyl]-3-(3-trifluoromethyl-phenyl)-urea], “blockers”.

The target of the next assay is IMPDH. Nature of the assay: IMPDH enzyme assay (NADH release at 340 nm). Type of assay: biochemical, human. Conditions: 0.2 mM IMP, 0.4 mM NAD, 37° C. The method, then: IMPDH Enzyme-Assay: For measuring IMPDH activity in vitro, the substrate inosine monophosphate (IMP) and enzyme, with or without inhibitor, are mixed together. […] The released NADH is measured at 340 nm. The assay is performed in PMMA half micro liter cuvettes, the total assay volume is 1 mL. 500 μl of 2× assay buffer (200 mM Tris/HCl, pH 8.0, 200 mM KCl, 6 mM EDTA and 4 mM DTT) are mixed with 10 μL of a freshly prepared 20 mM IMP solution (0.2 mM final concentration) and 10 μL of enzyme (0.03 U/mL). An appropriate amount of inhibitor is dissolved in 100% DMSO. 10 μL of this solution are added to the assay mix (1% DMSO final concentration). Finally 455 μL of deionized water are added to give the final volume of 1 mL. The mixture is incubated for 10 min at 37° C. The enzyme reaction is started by addition of 25 μL of a 16 mM NAD solution (0.4 mM final concentration). Reaction is followed for 30 min at 37° C. at 340 nm. The enzyme reaction runs linear with respect to time during the 30 min. The slopes of the resulting curves are calculated and results are presented in % of residual activity, which is calculated as % activity=(slope with inhibitor/slope without inhibitor) *100. For the determination of the IC50 values (concentration of inhibitor required for 50% inhibition) at least four different inhibitor concentrations were applied. Each data point was recorded in triplicates. […]
As to `COc1cc(NC(=O)Nc2ccc(S(=O)(=O)N3CCOCC3)cc2)ccc1C#N` [Example 15, 1-(4-Cyano-3-methoxy-phenyl)-3-[4-(morpholine-4-sulfonyl)-phenyl]-urea], the IC50 was less than 5 µM.
